Tests used:
E. faecium ATCC 49624 = assay: MIC determination in BHI media, OD600; type: cell-based; details: BHI + 0.1% casamino acids, 18 hours at 37° C., ≧90% OD600 inhibition
Outline: (§1)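 MIC was judged per concentration from endpoint plate readings after an 18-hour incubation at 37° C, using log-phase inoculum at about 5×10^5 CFU/ml and test agents serially diluted in DMSO.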

E. faecalis ATCC 29212 = assay: MIC determination in BHI media, OD600; type: cell-based; details: BHI + 0.1% casamino acids, 18 hours at 37° C., ≧90% OD600 inhibition
Outline: as §1

S aureus ATCC 29213 = assay: MIC determination in BHI media, OD600; type: cell-based; details: BHI + 0.1% casamino acids, 18 hours at 37° C., ≧90% OD600 inhibition
Outline: as §1

S. Aureus ATCC 33591 = assay: MIC determination in BHI media, OD600; type: cell-based; details: BHI + 0.1% casamino acids, 18 hours at 37° C., ≧90% OD600 inhibition
Outline: as §1

[1] = test system: S. epidermidis (ATCC 12228); assay: Zone of inhibition screen, 96 well agar array format; type: cell-based; design: scale not given here
Outline: (§2)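 Antibacterial testing on a 96-well agar array; each compound screened separately.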

E. faceium (ATCC 49624) = assay: as above; type: cell-based, E. faecium; details: zone of inhibition relative to 1 mg/ml stock solution of p-chlorobiphenylvancomycin;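 also: score 3 means fourfold and score 4 sixteenfold the reference zone size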
Experimental: The antibacterial activity of each of the compounds against the bacterial strains E. faceium (ATCC 49624), S. epidermidis (ATCC 12228), S. aureus (ATCC 29213), E. faecalis (CL 4877) and E. faecalis (ATCC 292121) was tested. Each of the compounds was screened in a 96 will agar array format.

E. faecium CL 4931 = assay: MIC determination in BHI media, OD600; type: cell-based; details: BHI + 0.1% casamino acids, 18 hours at 37° C., ≧90% OD600 inhibition
Outline: as §1

S. aureus (ATCC 29213) = assay: Zone of inhibition screen, 96 well agar array format; type: cell-based; design: scale not given here; details: zone of inhibition relative to 1 mg/ml p-chlorobiphenylvancomycin
Outline: as §2

E. faecalis (CL 4877) = assay: as above; type: cell-based; design: scale not given here
Outline: as §2

[2] = zone of inhibition relative to 1 mg/ml stock solution of p-chlorobiphenylvancomycin
[3] = zone of inhibition relative to 1 mg/ml p-chlorobiphenylvancomycin

Row | MIC E. faecium ATCC 49624 (E. faecium ATCC 49624) | MIC E. faecalis ATCC 29212 (E. faecalis ATCC 29212) | MIC S. aureus ATCC 29213 (S aureus ATCC 29213) | MIC S. aureus ATCC 33591 (S. Aureus ATCC 33591) | MIC E. faecium CL 4931 (E. faecium CL 4931) | Structure (SMILES) | zone score, S. epidermidis ATCC 12228 [1, 2] | zone score, E. faecium ATCC 49624 (E. faceium (ATCC 49624)) | zone score, S. aureus ATCC 29213 (S. aureus (ATCC 29213)) | zone score, S. epidermidis ATCC 12228 [1, 3] | zone score, E. faecalis CL 4877 (E. faecalis (CL 4877); [3]) | zone score, E. faecalis CL 4877 (E. faecalis (CL 4877); [2])
1 | 0.12 µg/mL | 0.25 µg/mL | 0.78 µg/mL | 0.39 µg/mL |  | CNC(CC(C)C)C(=O)NC1C(=O)NC(CC(N)=O)C(=O)NC2C(=O)NC3C(=O)NC(C(=O)NC(C(=O)O)c4cc(O)cc(O)c4-c4cc3ccc4O)C(O)c3ccc(c(Cl)c3)Oc3cc2cc(c3OC2OC(CN)C(O)C(O)C2OC2CC(C)(NCc3ccc(-c4ccc(Cl)cc4)cc3)C(O)C(C)O2)Oc2ccc(cc2Cl)C1O (stereo not drawn) [Compound 523] |  |  |  |  |  | 
2 |  |  | 0.78 µg/mL | 0.78 µg/mL | 25 µg/mL | C[C@H]1O[C@H](O[C@H]2[C@H](Oc3c4cc5cc3Oc3ccc(cc3Cl)[C@@H](O)[C@@H](NC(=O)CN3CCNCC3)C(=O)N[C@@H](CC(N)=O)C(=O)N[C@H]5C(=O)N[C@H]3C(=O)N[C@H](C(=O)N[C@@H](C(=O)O)c5cc(O)cc(O)c5-c5cc3ccc5O)[C@H](O)c3ccc(c(Cl)c3)O4)O[C@H](CO)[C@@H](O)[C@@H]2O)C[C@@](C)(NCc2ccc(-c3ccc(Cl)cc3)cc2)[C@H]1O [Compound 24] | 2 | 2 |  |  |  | 
3 | 0.25 µg/mL | 0.78 µg/mL | 0.39 µg/mL | 0.39 µg/mL |  | CCC(C)C(N)C(=O)NC1C(=O)NC(CC(N)=O)C(=O)NC2C(=O)NC3C(=O)NC(C(=O)NC(C(=O)O)c4cc(O)cc(O)c4-c4cc3ccc4O)C(O)c3ccc(c(Cl)c3)Oc3cc2cc(c3OC2OC(CO)C(O)C(O)C2OC2CC(C)(NCc3ccc(-c4ccc(Cl)cc4)cc3)C(O)C(C)O2)Oc2ccc(cc2Cl)C1O (stereo not drawn) [Compound 37] |  |  |  |  |  | 
4 | 0.12 µg/mL | 0.25 µg/mL | 0.25 µg/mL | 0.25 µg/mL |  | CC(C)CC(N)C(=O)NC1C(=O)NC(CC(N)=O)C(=O)NC2C(=O)NC3C(=O)NC(C(=O)NC(C(=O)O)c4cc(O)cc(O)c4-c4cc3ccc4O)C(O)c3ccc(c(Cl)c3)Oc3cc2cc(c3OC2OC(CO)C(O)C(O)C2OC2CC(C)(NCc3ccc(-c4ccc(Cl)cc4)cc3)C(O)C(C)O2)Oc2ccc(cc2Cl)C1O (stereo not drawn) [Compound 336] |  |  |  |  |  | 
5 | 0.12 µg/mL | 0.25 µg/mL | 0.25 µg/mL | 0.25 µg/mL |  | CC1OC(OC2C(Oc3c4cc5cc3Oc3ccc(cc3Cl)C(O)C3NC(=O)C(NC(=O)C5NC(=O)C(CC(N)=O)NC(=O)C(NC(=O)C5CNC(=O)N5)C(O)c5ccc(c(Cl)c5)O4)c4ccc(O)c(c4)-c4c(O)cc(O)cc4C(C(=O)O)NC3=O)OC(CO)C(O)C2O)CC(C)(NCc2ccc(-c3ccc(Cl)cc3)cc2)C1O (stereo not drawn) [Compound 56-3] |  |  |  |  |  | 
6 | 0.12 µg/mL | 0.25 µg/mL | 0.12 µg/mL | 0.12 µg/mL |  | CC1OC(OC2C(Oc3c4cc5cc3Oc3ccc(cc3Cl)C(O)C3NC(=O)C(NC(=O)C5NC(=O)C(CC(N)=O)NC(=O)C(NC(=O)C(N)CCCCNC(N)=O)C(O)c5ccc(c(Cl)c5)O4)c4ccc(O)c(c4)-c4c(O)cc(O)cc4C(C(=O)O)NC3=O)OC(CO)C(O)C2O)CC(C)(NCc2ccc(-c3ccc(Cl)cc3)cc2)C1O (stereo not drawn) [Compound 61] |  |  |  |  |  | 
7 | 0.39 µg/mL |  | 0.78 µg/mL | 0.78 µg/mL | 25 µg/mL | C[C@H]1O[C@H](O[C@H]2[C@H](Oc3c4cc5cc3Oc3ccc(cc3Cl)[C@@H](O)[C@@H](NC(=O)c3cccc(N)c3)C(=O)N[C@@H](CC(N)=O)C(=O)N[C@H]5C(=O)N[C@H]3C(=O)N[C@H](C(=O)N[C@@H](C(=O)O)c5cc(O)cc(O)c5-c5cc3ccc5O)[C@H](O)c3ccc(c(Cl)c3)O4)O[C@H](CO)[C@@H](O)[C@@H]2O)C[C@@](C)(NCc2ccc(-c3ccc(Cl)cc3)cc2)[C@H]1O [Compound 257] |  |  | 2 | 2 | 2 | 
8 | 0.78 µg/mL |  |  |  | > 25 µg/mL | CC(O)C(N)C(=O)NC1C(=O)NC(CC(N)=O)C(=O)NC2C(=O)NC3C(=O)NC(C(=O)NC(C(=O)O)c4cc(O)cc(O)c4-c4cc3ccc4O)C(O)c3ccc(c(Cl)c3)Oc3cc2cc(c3OC2OC(CO)C(O)C(O)C2OC2CC(C)(NCc3ccc(-c4ccc(Cl)cc4)cc3)C(O)C(C)O2)Oc2ccc(cc2Cl)C1O (stereo not drawn) [Compound 89] | 2 | 2 |  |  |  | 2

Row | Structure (SMILES) | MIC E. faecium ATCC 49624 (E. faecium ATCC 49624) | MIC E. faecalis ATCC 29212 (E. faecalis ATCC 29212) | MIC S. aureus ATCC 29213 (S aureus ATCC 29213) | MIC S. aureus ATCC 33591 (S. Aureus ATCC 33591) | MIC E. faecium CL 4931 (E. faecium CL 4931) | zone score, S. epidermidis ATCC 12228 [1, 2] | zone score, E. faecium ATCC 49624 (E. faceium (ATCC 49624)) | zone score, S. aureus ATCC 29213 (S. aureus (ATCC 29213)) | zone score, S. epidermidis ATCC 12228 [1, 3] | zone score, E. faecalis CL 4877 (E. faecalis (CL 4877); [3]) | zone score, E. faecalis CL 4877 (E. faecalis (CL 4877); [2])
9 | CC1OC(OC2C(Oc3c4cc5cc3Oc3ccc(cc3Cl)C(O)C3NC(=O)C(NC(=O)C5NC(=O)C(CC(N)=O)NC(=O)C(NC(=O)C(N)CCC(N)=O)C(O)c5ccc(c(Cl)c5)O4)c4ccc(O)c(c4)-c4c(O)cc(O)cc4C(C(=O)O)NC3=O)OC(CO)C(O)C2O)CC(C)(NCc2ccc(-c3ccc(Cl)cc3)cc2)C1O (stereo not drawn) [Compound 91] | 0.78 µg/mL |  | 0.78 µg/mL | 0.78 µg/mL | 25 µg/mL | 2 |  |  |  |  | 

From patent US6518243B1, “Desleucyl glycopeptide antibiotics and methods of making same” (Trustees of Princeton University, priority 1999, dated 2003)
